Results reported in US12215100B2, “Anticancer compounds” (Pharma Mar, S.A., priority 2018, dated 2025).

How the values were obtained:
Type in all cases: cell-based, human
HT29 = test: SRB colorimetric cytotoxicity assay, HT29; conditions: Homo sapiens, colorectal adenocarcinoma
Description: (§1) The aim of this assay is to evaluate the in vitro cytostatic (ability to delay or arrest tumor cell growth) or cytotoxic (ability to kill tumor cells) activity of the samples being tested.
(§2) A colorimetric assay, using sulforhodamine B (SRB) reaction has been adapted to provide a quantitative measurement of cell growth and viability (following the technique described by V. Vichai and K. Kirtikara (2006) Nature Protoc. 1, 1112-1116.)
(§3) This form of assay employs 96-well cell culture microplates. All the cell lines used in this study were obtained from the American Type Culture Collection (ATCC), unless otherwise indicated, and derive from different types of human cancer.
(§4) Cells were maintained in Dulbecco's Modified Eagle Medium (DMEM) (for A549, HT-29 and MDA-MB-231) or RPMI (for PSN-1) supplemented with 10% Fetal Bovine Serum (FBS), 2 mM L-glutamine, 100 U/mL penicillin and 100 U/mL streptomycin at 37° C., 5% CO2 and 98% humidity. For the experiments, cells were harvested from subconfluent cultures using trypsinization and resuspended in fresh medium before counting and plating.
(§5) Cells were seeded in 96 well microtiter plates, at 5×10^3 cells per well in aliquots of 150 μL, and allowed to attach to the plate surface for 18 hours (overnight) in drug free medium. After that, one control (untreated) plate of each cell line was fixed (as described below) and used for time zero reference value. […] After 72 hours treatment, the antitumor effect was measured by using the SRB methodology: Briefly, cells were washed twice with PBS, fixed for 15 min in 1% glutaraldehyde solution at room temperature, rinsed twice in PBS, and stained in 0.4% SRB solution for 30 min at room temperature. Cells were then rinsed several times with 1% acetic acid solution and air-dried at room temperature. SRB was then extracted in 10 mM trizma base solution and the absorbance measured in an automated spectrophotometric plate reader at 490 nm. Effects on cell growth and survival were estimated by applying the NCI algorithm (Boyd M R and Pauli K D. Drug Dev Res. 1995, 34, 91-104).
(§6) Using the mean±SD of triplicates, a dose-response curve was automatically generated using nonlinear regression analysis to a 4-parameter logistic curve. Three reference parameters were calculated (NCI algorithm) by automatic interpolation: GI50=compound concentration that produces 50% cell growth inhibition, as compared to control cultures; TGI=total cell growth inhibition (cytostatic effect), as compared to control cultures, and LC50=compound concentration that produces 50% net cell killing (cytotoxic effect).

PSN-1 = test: SRB colorimetric cytotoxicity assay, PSN-1; conditions: Homo sapiens, pancreatic adenocarcinoma
Description: as §1, §2, §3, §4, §5, §6

A549 = test: SRB colorimetric cytotoxicity assay, A549; conditions: Homo sapiens, lung carcinoma (NSCLC)
Description: as §1, §2, §3, §4, §5, §6

MDA-MB-231 = test: SRB colorimetric cytotoxicity assay, MDA-MB-231; conditions: Homo sapiens, breast adenocarcinoma
Description: as §1, §2, §3, §4, §5, §6

[1] = HT-29, 72 h, 72 hours treatment
[2] = MDA-MB-231, 72 h, 72 hours treatment

SMILES | GI50 (HT29; [1]) | GI50 (PSN-1; PSN1, 72 h, 72 hours treatment) | GI50 (A549; A549, 72 h, 72 hours treatment) | GI50 (MDA-MB-231; [2]) | GI50 (HT29; HT-29, 72 hours treatment) | GI50 (PSN-1; PSN1, 72 hours treatment) | GI50 (A549; A549, 72 hours treatment) | GI50 (MDA-MB-231; MDA-MB-231, 72 hours treatment)
C=Cc1cc([C@@H](CCC)NC(=O)[C@]2(C)CSC(/C(C)=N/O)=N2)oc(=O)c1 [Compound 79] | 397 nM | 477 nM | 424 nM | 344 nM |  |  |  | 
CCC[C@@H](NC(=O)[C@]1(C)CSC(/C(C)=N/O)=N1)c1cc(O)cc(=O)[nH]1 [Compound 82] | 491 nM | 355 nM | 1640 nM | 1120 nM |  |  |  | 
CCC[C@@H](NC(=O)[C@]1(C)CSC(/C(C)=N/O)=N1)c1cc(OCCOCCOCCOCC)cc(=O)o1 [Compound 87] | 5500 nM | 7010 nM | 5690 nM | 6820 nM |  |  |  | 
CCC[C@@H](NC(=O)[C@]1(C)CSC(/C(C)=N/O)=N1)c1cc(O)cc(=O)o1 [Compound 88] | 11400 nM | 18800 nM | 20400 nM | 21800 nM |  |  |  | 
CCC[C@@H](NC(=O)[C@]1(C)CSC(/C(C)=N/O)=N1)c1cc(OCCCN)cc(=O)o1 [Compound 89] | 8950 nM | 6360 nM | 16500 nM | 5890 nM |  |  |  | 
CCC[C@@H](NC(=O)[C@@H]1CSC(/C(C)=N/O)=N1)c1cc(OC)cc(=O)o1 [Compound 92] | 1280 nM | 953 nM | 1550 nM | 953 nM |  |  |  | 
C=CCO/N=C(\C)C1=N[C@](C)(C(=O)N[C@H](CCC)c2cc(OC)cc(=O)o2)CS1 [Compound 93] | 23.5 nM | 28.5 nM | 21.4 nM | 38 nM |  |  |  | 
C#CCO/N=C(\C)C1=N[C@](C)(C(=O)N[C@H](CCC)c2cc(OC)cc(=O)o2)CS1 [Compound 94] | 22.6 nM | 35.8 nM | 35.8 nM | 35.8 nM |  |  |  | 
CCC[C@@H](NC(=O)[C@]1(C)CSC(/C(C)=N/OC(=O)COCCOCCOC)=N1)c1cc(OC)cc(=O)o1 [Compound 95] | 40.6 nM | 33.2 nM | 20.3 nM | 44.3 nM |  |  |  | 
CCC[C@@H](NC(=O)[C@]1(C)CSC(/C(C)=N/OCCOCCOCCOCC)=N1)c1cc(OC)cc(=O)o1 [Compound 96] | 1510 nM | 2220 nM | 1770 nM | 2950 nM |  |  |  | 
CCC[C@@H](NC(=O)[C@]1(C)CSC(/C(C)=N/OCCCNC(=O)OC(C)(C)C)=N1)c1cc(OC)cc(=O)o1 [Compound 97] | 594 nM | 835 nM | 631 nM | 1150 nM |  |  |  | 
CCC[C@@H](NC(=O)[C@]1(C)CSC(/C(C)=N/OCCCN)=N1)c1cc(OC)cc(=O)o1 [Compound 98] | 25.1 nM | 27.4 nM | 22.1 nM | 34.2 nM |  |  |  | 
CCC[C@@H](NC(=O)[C@]1(C)CSC(/C(C)=N/N)=N1)c1cc(OC)cc(=O)o1 [Compound 99] | 447 nM | 920 nM | 578 nM | 657 nM |  |  |  | 
CCC[C@@H](NC(=O)[C@]1(C)COC(/C(C)=N/O)=N1)c1cc(OC)cc(=O)o1 [Compound 106] | 712 nM | 1560 nM | 1010 nM | 876 nM |  |  |  | 
C=CCOc1cc([C@@H](CCC)NC(=O)[C@]2(C)CSC(/C(C)=N/O[C@H]3O[C@H](COC(C)=O)[C@@H](OC(C)=O)[C@H](OC(C)=O)[C@H]3OC(C)=O)=N2)oc(=O)c1 [Compound 107] | 52.9 nM | 61 nM | 52.9 nM | 78.6 nM |  |  |  | 
C=CCOc1cc([C@@H](CCC)NC(=O)[C@]2(C)CSC(/C(C)=N/O[C@H]3O[C@@H]4COC(C)(C)O[C@H]4[C@@H]4OC(C)(C)O[C@H]34)=N2)oc(=O)c1 [Compound 110] | 36.9 nM | 56.9 nM | 43.1 nM | 78.5 nM |  |  |  | 
C=CCOc1cc([C@@H](CCC)NC(=O)[C@]2(C)CSC(/C(C)=N/O[C@H]3O[C@H](CO)[C@@H](O)[C@@H]4OC(C)(C)O[C@H]34)=N2)oc(=O)c1 [Compound 111] | 24.6 nM | 37.7 nM | 26.2 nM | 29.5 nM |  |  |  | 
C=CCOc1cc([C@@H](CCC)NC(=O)[C@]2(C)CSC(/C(C)=N/O[C@H]3O[C@H](CO)[C@@H](O)[C@H](O)[C@@H]3O)=N2)oc(=O)c1 [Compound 112] | 1110 nM | 1230 nM | 4040 nM | 2110 nM |  |  |  | 

SMILES | GI50 (HT29; [1]) | GI50 (PSN-1; PSN1, 72 h, 72 hours treatment) | GI50 (A549; A549, 72 h, 72 hours treatment) | GI50 (MDA-MB-231; [2]) | GI50 (HT29; HT-29, 72 hours treatment) | GI50 (PSN-1; PSN1, 72 hours treatment) | GI50 (A549; A549, 72 hours treatment) | GI50 (MDA-MB-231; MDA-MB-231, 72 hours treatment)
C=CCOc1cc([C@@H](CCC)NC(=O)[C@]2(C)CSC(/C(C)=N/O[Si](c3ccccc3)(c3ccccc3)C(C)(C)C)=N2)oc(=O)c1 [Compound 113] |  |  |  |  | 5.57 nM | 14.7 nM | 15.2 nM | 8.36 nM
C=CCOc1cc([C@@H](CCC)NC(=O)[C@]2(C)CSC(/C(C)=N/OCCCCO)=N2)oc(=O)c1 [Compound 115] | 5.84 nM | 13.6 nM | 11.1 nM | 11.9 nM |  |  |  | 
CCC[C@@H](NC(=O)[C@]1(C)CSC(/C(C)=N/CCCNC(=O)OC(C)(C)C)=N1)c1cc(OCC2CC2)cc(=O)o1 [Compound 116] | 249 nM | 302 nM | 302 nM | 195 nM |  |  |  | 
C=CCOc1cc([C@@H](CCC)NC(=O)[C@]2(C)CSC(C(C)N)=N2)oc(=O)c1 (stereo partly drawn) [Compound 117] | 3490 nM | 4880 nM | 3020 nM | 4650 nM |  |  |  | 
CCC[C@@H](NC(=O)[C@]1(C)CSC(C(C)=O)=N1)c1cccc(=O)o1 [Compound 127] | 14000 nM | 18700 nM | > 29700 nM | 8620 nM |  |  |  | 
CCC[C@@H](NC(=O)[C@]1(C)CSC(/C(C)=N/O)=N1)c1cccc(=O)o1 [Compound 128] | 105 nM | 88.2 nM | 91.1 nM | 285 nM |  |  |  | 
CCC[C@@H](NC(=O)[C@@]1(C)CSC(C(C)(OCC)OCC)=N1)c1cc(OC)cc(=O)o1 [Compound 129] | 3630 nM | 5450 nM | 6130 nM | 3860 nM |  |  |  | 
C=CCOc1cc([C@@H](CCC)NC(=O)[C@@]2(C)CSC(C(C)(OCC)OCC)=N2)oc(=O)c1 [Compound 130] | 206 nM | 364 nM | 214 nM | 364 nM |  |  |  | 
CCC[C@@H](NC(=O)[C@@]1(C)CSC(C(C)(OCC)OCC)=N1)c1cc(OCC2CC2)cc(=O)o1 [Compound 131] | 196 nM | 312 nM | 208 nM | 333 nM |  |  |  | 
C=CCOc1cc([C@@H](CCC)NC(=O)[C@@]2(C)CSC(C(C)=O)=N2)oc(=O)c1 [Compound 133] | 4590 nM | 5610 nM | 9430 nM | 3820 nM |  |  |  | 
CCC[C@@H](NC(=O)[C@@]1(C)CSC(/C(C)=N/O)=N1)c1cc(OC)cc(=O)o1 [Compound 135] | 1260 nM | 1260 nM | 2460 nM | 2330 nM |  |  |  | 
C=CCOc1cc([C@@H](CCC)NC(=O)[C@@]2(C)CSC(/C(C)=N/O)=N2)oc(=O)c1 [Compound 136] | 85.9 nM | 81 nM | 71.2 nM | 78.5 nM |  |  |  | 
CCC[C@@H](NC(=O)[C@@]1(C)CSC(/C(C)=N/O)=N1)c1cc(OCC2CC2)cc(=O)o1 [Compound 137] | 109 nM | 145 nM | 126 nM | 149 nM |  |  |  | 
COc1cc([C@@H](CCC(F)(F)F)NC(=O)[C@]2(C)CSC(/C(C)=N/O)=N2)oc(=O)c1 [Compound 140] | 344 nM | 643 nM | 666 nM | 459 nM |  |  |  | 
COc1cc([C@@H](CCC(F)(F)F)NC(=O)[C@]2(C)CSC(/C(C)=N\O)=N2)oc(=O)c1 [Compound 140a] | 1520 nM | 2760 nM | 2530 nM | 2270 nM |  |  |  | 
C#CCOc1cc([C@@H](CCC)NC(=O)[C@]2(C)CSC(C(C)=NO)=N2)oc(=O)c1CC#C [Compound 141] | 178 nM | 338 nM | 225 nM | 248 nM |  |  |  | 
C=CCOc1cc([C@@H](CCC)NC(=O)[C@]2(C)CSC(/C(C)=N/OCCOCCOCCOCC)=N2)oc(=O)c1 [Compound 144] | 65.2 nM | 125 nM | 72.2 nM | 162 nM |  |  |  | 
CCC[C@@H](NC(=O)[C@]1(C)CSC(/C(C)=N/OCCOCCOCCOCC)=N1)c1cc(OCC2CC2)cc(=O)o1 [Compound 145] | 61.9 nM | 112 nM | 48.1 nM | 122 nM |  |  |  | 
